According to article PMC9223658, “New Borane-Protected Derivatives of α-Aminophosphonous Acid as Anti-Osteosarcoma Agents: ADME Analysis and Molecular Modeling, In Vitro Studies on Anti-Cancer Activities, and NEP Inhibition as a Possible Mechanism of Anti-Proliferative Activity” (International Journal of Molecular Sciences, 2022):
Where two headings read alike, the source gives them in different places.

Legend:
[1] = test system: osteosarcoma HOS cells; assay: MTT proliferation assay, 96 h; assay type: cell-based, human; settings: proliferation, 10% FBS, read-out: IC50 (µM ± SD) HOS
Protocol: (§1) One of the features specific totumor cells is the unlimited potential for proliferation. […] To this end, the assay conditions were established suchthat they encourage the proliferation of OS cells, i.e., the cell cultures at low density were incubated with compounds diluted in the growth medium (10% FBS) for an extended time of 96 h. Additionally, cisplatin, i.e., a common cytostatic used in osteosarcoma treatment, was included as a positive control in this study. Moreover, since the new generation of anti-cancer compounds is highly desired to be inert (non-cytotoxic) towards normal cells, the influence of compounds 1–7 on the viability of human normal cells (osteoblasts hFOB 1.19 and colon fibroblasts CCD-18Co) was also determined.To this end, the assay conditions were established such that they restrict the proliferation of OS cells and to establish whether the compounds have cytotoxic potential, i.e., the cell cultures were incubated with compounds diluted in the medium with a reduced concentration of FBS (2%) for a shortened time of 24 h. […] However, this activity varied depending on both the types of the compounds and the osteosarcoma cell lines (Table 4).
(§2) The anti-proliferative activity of compounds 1–7 against the HOS and Saos-2 osteosarcoma cells and the viability of the human normal hFOB 1.19 and CCD-18Co cells were screened by means of the MTT method. This method is commonly used to assess cell viability and proliferation or to determine the cytotoxicity of any compounds. It is a reliable method for this purpose because it is based on measurement of the level reduction in MTT dye to formazan byNAD(P)H-dependent oxidoreductase enzymes of metabolically active cells.
(§3) To assess the anti-proliferative activity of compounds 1–7 against the HOS and Saos-2 osteosarcoma cells, 3.0 × 10^4 cells/mLseeded (low density culture) into 96-well plates (Nunc, Roskilde, Denmark) were incubated with each compound at concentrations of 3.125, 6.25, 12.5, 25, 50, 100 and 200 µM prepared in medium with 10% FBS (growth medium) for 96 h. Additionally, cisplatin (Sigma Aldrich), i.e., a common cytostatic used in osteosarcoma treatment, was included as a positive control in this study. It was tested in the same conditions as compounds 1–7. The negative control was constituted by the untreated cells (0 µM). Next, the MTT assay was carried out as described previously.
(§4) The results of these assays were calculated as a percent of the untreated cells (100%; control). Then, the IC50 (concentration resulting in 50% inhibition of proliferation) and CC50 (concentration resulting in a 50% decrease in viability) values were calculated from a non-linear regression (log(inhibitor) vs. normalized response-variable slope) using GraphPad Prism 5.0 (GraphPAD Software Inc., San Diego, CA, USA). The IC50 and CC50 results were presented as themean ± SD of at least three experiments. In the case of the BrdU assay, the results were presented as a percent of untreated cells (100%; control).

[2] = test system: osteosarcoma Saos-2 cells; assay: MTT proliferation assay, 96 h; assay type: cell-based, human; settings: MTT, 10% FBS, read-out: IC50 (µM ± SD) Saos-2
Protocol: as §1, §2, §3, §4

[3] = test system: active caspase 3 in HOS cells; assay: Active caspase 3 assay (flow cytometry); assay type: cell-based, human; settings: 3.5 µM (IC50 concentration), 72 h
Protocol: (§5) The level of active executor caspase 3 and initiator caspase 9 was determined to examine whether compounds 4 and 6 induced apoptosis in the HOS and Saos-2 cells. The influence of compounds 4 and 6 on HOS and Saos-2 were determined with the caspase 3 assay, whereas the influence of compound 6 on the HOS cells was investigated with the caspase 9 assay. In both assays, the osteosarcoma cells (3.0 × 10^5 cells/mL) were seeded in 6-well plates. The cells were treated with compounds 4 and 6 at concentrations of 12.5, 25, 50 µM and 20, 40, 80 µM as well as 15, 30, 60 µM and 21.25, 42.5, 85 µM for 72 h, respectively. The solutions of the compounds were prepared in a medium with 2% FBS. […] Next, floating and adherent cells were harvested and subjected to further steps of the staining procedures according to the manufacturer’s instruction. The level of active caspase 3 and caspase 9 was determined using the PE Active Caspase-3 Apoptosis Kit (BD Pharmingen^TM) and the CaspaTag^TM Caspase-9 in Situ Assay Kit (Millipore, Darmstadt, Germany), respectively. The number of stained cells (active caspase 3- or 9-positive cells) was measured using FACS Calibur, and the obtained data were analyzed using Cell Quest Pro Version 6.0. for the Macintosh operating system (BD Pharmingen™). The presented results were calculated as a percent of cells with either active caspase 3 or 9 among all the analyzed cells.

[4] = test system: active caspase 3 in Saos-2 cells; assay: Active caspase 3 assay (flow cytometry); assay type: cell-based, human; settings: Saos-2, 12.5 µM (IC50 concentration), 72 h
Protocol: as §5

[5] = test system: active caspase 9 in HOS cells; assay: Active caspase 9 assay (flow cytometry); assay type: cell-based, human; settings: 3.5 µM (IC50 concentration), 72 h
Protocol: as §5

[6] = MTT viability assay, 24 h; assay type: cell-based; settings: human, 2% FBS
Protocol: as §1, §2
To assess the viability of human normal cells, confluent hFOB 1.19 (3 × 10^5 cells/mL) and CCD-18Co (1 × 10^5 cells/mL) cells seeded in 96-well plates (Nunc) were incubated with compounds 1–7 at concentrations of 3.125, 6.25, 12.5, 25, 50, 100 and 200 µM prepared in medium with 2% FBS (maintaining medium) for 24 h. The control was constituted by the untreated cells (0 µM). Next, the MTT assay was carried out as described previously.
as §4

[7] = target: T1, NEP (neprilysin) (Homo sapiens, UniProt P08473); assay: Neutral endopeptidase activity assay (fluorometric); assay type: biochemical
T1 construct: purchased BioVision, Waltham, MA, USA
T1 sequence (P08473 whole entry): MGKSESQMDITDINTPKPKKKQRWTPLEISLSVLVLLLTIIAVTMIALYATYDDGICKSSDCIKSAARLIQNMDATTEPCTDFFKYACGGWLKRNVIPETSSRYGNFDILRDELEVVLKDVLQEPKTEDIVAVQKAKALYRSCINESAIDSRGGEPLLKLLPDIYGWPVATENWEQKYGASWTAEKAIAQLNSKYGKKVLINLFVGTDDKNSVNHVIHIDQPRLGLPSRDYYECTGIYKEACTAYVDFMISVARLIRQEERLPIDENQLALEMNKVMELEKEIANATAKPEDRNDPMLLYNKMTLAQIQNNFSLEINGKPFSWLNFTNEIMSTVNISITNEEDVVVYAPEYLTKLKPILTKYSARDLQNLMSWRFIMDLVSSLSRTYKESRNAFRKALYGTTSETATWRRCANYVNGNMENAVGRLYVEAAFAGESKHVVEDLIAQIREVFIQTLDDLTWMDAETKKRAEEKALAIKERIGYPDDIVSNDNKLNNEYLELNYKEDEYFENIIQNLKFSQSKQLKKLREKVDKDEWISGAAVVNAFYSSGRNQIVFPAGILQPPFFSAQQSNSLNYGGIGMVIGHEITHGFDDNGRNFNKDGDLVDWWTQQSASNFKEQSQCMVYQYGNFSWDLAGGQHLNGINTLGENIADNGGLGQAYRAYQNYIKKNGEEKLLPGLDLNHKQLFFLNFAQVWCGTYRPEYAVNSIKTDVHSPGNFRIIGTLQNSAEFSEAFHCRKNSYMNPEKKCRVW
Protocol: The NEP activity in the presence of compounds 4 and 6 was determined using the Neprilysin Activity Assay Kit (BioVision, Waltham, MA, USA) according to the manufacturer’s instructions. The measurement is based on the ability of active neprilysin to cleave a synthetic substrate (Abz-based peptide) to release a fluorophore, which can be easily quantified using a fluorescence microplate reader. Briefly, pure neprilysin (5µLof stock solution) was incubated with solutions of the tested compounds (at least 4 concentrations in the range of 0.01–50 µM) for 10 min at 37 °C. The reaction was started by adding the substrate solution, and the final sample volume was 100µL. Fluorescence was measured (Ex/Em = 330/430nm) in the kinetic mode at 37 °C for 1–2 h. The same procedure was used to measure the control and background sample. Thiorphan was used as a reference NEP inhibitor. NEP activity was determined with the prepared Abz standard curve and expressed in µU/mL. The experiments were performed at least in triplicates, and the graphs represent mean ±SD values.

[8] = test system: HOS cells; assay: BrdU proliferation assay, 96 h; assay type: cell-based, human; settings: for decrease in proliferation: 96 h
Protocol: (§6) In the study on the implication of NEP in the anti-proliferative activity of compound 4, cell proliferation was determined with the BrdU assay. Cell cultures were prepared as described above. Depending on the requirements, the HOS and Saos-2 cells were treated with non-cytotoxic concentrations of the NEP inhibitor—thiorphan (1, 5, 20, 100, 200, 500 µM) or pre-treated with thiorphan (100 µM) for 1 h. In this scheme, compound 4 (HOS—25 µM; Saos-2—60 µM) was added alone or in combination with the NEP inhibitor into the cell cultures. Finally, cell proliferation was evaluated with the BrdU Cell Proliferation Assay according to the manufacturer’s instructions (Millipore, Darmstadt, Germany) after a 96-h incubation.
as §4

[9] = test system: Saos-2 cells; assay: BrdU proliferation assay, 96 h; assay type: cell-based, human; settings: for decrease in proliferation: 96 h
Protocol: as §6, §4

[10] = Homo sapiens, SAOS-2, proliferation
[11] = normal osteoblasts hFOB 1.19 cells, read-out: CC50 (µM ± SD) hFOB 1.19

Structure (SMILES)	IC50 ([1]; Homo sapiens, HOS) [µM]	IC50 [2, 10] [µM]	CC50 at 24 h [6, 11] [µM]	other results
[NH2][Pt]([NH2])([Cl])[Cl] [CDDP, cisplatin, reference compound]	–	–	–	IC50 [1]: 3.5 ± 0.92 µM; IC50 ([2]; proliferation): 12.8 ± 3.7 µM; increase in active caspase 3 vs untreated cells [3]: approx. 13%; increase in active caspase 3 vs untreated cells [4]: approx. 9%; increase in active caspase 9 vs untreated cells [5]: approx. 10%
[BH3-][P+](Cc1ccccc1)(OC(C)C)OC(C)C [Compound 1, benzylphosphonous acid-borane diisopropyl ester]	164 ± 79.5	91 ± 19.4	161 ± 22.9	–
[BH3-][P+](OC(C)C)(OC(C)C)C(C)(C)O [Compound 2, 1-hydroxy-1-methylethylphosphonous acid-borane diisopropyl ester]	344 ± 142	83.4 ± 18.4	182 ± 28.1	–
[BH3-][P+](OC(C)C)(N(CC)CC)C(C)(C)O (stereo not drawn) [Compound 3, 1-hydroxy-1-methylethylphosphonous acid-borane isopropyl ester N,N-diethylamide]	226 ± 3.56	79.6 ± 13.6	224 ± 95.3	–
O=C(O)CNC(=O)C(CS)Cc1ccccc1 (stereo not drawn) [thiorphan, N-[2-(mercaptomethyl)-1-oxo-3-phenylpropyl]glycine]	–	–	–	decrease in NEP activity ([7]; 0.0005 µM): approx. 30%; decrease in NEP activity ([7]; 0.005 µM): approx. 50%; decrease in NEP activity ([7]; 0.01 µM): ~60%; effect on proliferation ([8]; 100 µM): did not affect cell proliferation; decrease in proliferation ([8]; 200 µM): approx. 30%; decrease in proliferation ([8]; 500 µM): ~40%; effect on proliferation ([9]; Saos-2, 100 µM): did not affect cell proliferation; decrease in proliferation ([9]; Saos-2, 200 µM): 35%; decrease in proliferation ([9]; Saos-2, 500 µM): 60%

More lines, main results first:

IC50 ([1]; Homo sapiens, HOS) [µM]	IC50 [2, 10] [µM]	Structure (SMILES)	CC50 at 24 h [6, 11] [µM]	other results
79.5 ± 22.9	96 ± 3.3	[BH3-][P+](OC(C)C)(OC(C)C)C(Nc1ccc(O)cc1)c1ccccc1 (stereo not drawn) [Compound 5]	43.9 ± 3.5	CC50 at 24 h ([6]; normal colon fibroblasts CCD-18Co cells, read-out: CC50 (µM ± SD) CCD-18Co): 62.5 ± 36.2 µM
51.2 ± 18.6	109 ± 15.8	[BH3-][P+](OC(C)C)(OC(C)C)C(Nc1ccc(Br)cc1)c1ccc(OC)cc1 (stereo not drawn) [Compound 7, [1-(N-p-bromophenylamino)]-1-(p-anisyl)methylphosphonous acid-borane diisopropyl ester]	214 ± 39.5	–
